Measurements from PubChem BioAssay (NCI).
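Exposure lasted 48 hours, with cells grown in 96-well plates and compounds tested at five concentrations. TGI denotes the concentration required for complete inhibition of growth.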

Experiments:
Assay in all cases: growth of human tumour cells (NCI), 48 h
NCI-H522 lung = tested on: NCI-H522 lung
T-47D breast = tested on: T-47D breast
DU-145 prostate = tested on: DU-145 prostate
786-0 renal = tested on: 786-0 renal
SF-268 CNS = tested on: SF-268 CNS
MOLT-4 leukemia = tested on: MOLT-4 leukemia
OVCAR-5 ovarian = tested on: OVCAR-5 ovarian
COLO 205 colon = tested on: COLO 205 colon
A549 NSCLC = tested on: A549 NSCLC
BT-549 breast = tested on: BT-549 breast
SN12C renal = tested on: SN12C renal
SK-MEL-5 melanoma = tested on: SK-MEL-5 melanoma
SW-620 colon = tested on: SW-620 colon
NCI-H460 lung = tested on: NCI-H460 lung
K-562 leukemia = tested on: K-562 leukemia
TK-10 renal = tested on: TK-10 renal
NCI/ADR-RES ovarian = tested on: NCI/ADR-RES ovarian
HT29 colon = tested on: HT29 colon
MDA-MB-435 = tested on: MDA-MB-435
M14 melanoma = tested on: M14 melanoma
HL-60(TB) leukemia = tested on: HL-60(TB) leukemia
U251 CNS = tested on: U251 CNS
NCI-H226 lung = tested on: NCI-H226 lung
UO-31 renal = tested on: UO-31 renal
OVCAR-8 ovarian = tested on: OVCAR-8 ovarian
UACC-62 melanoma = tested on: UACC-62 melanoma
SK-MEL-28 melanoma = tested on: SK-MEL-28 melanoma
HCT-15 colon = tested on: HCT-15 colon
HS 578T breast = tested on: HS 578T breast
HOP-92 NSCLC = tested on: HOP-92 NSCLC
SK-MEL-2 melanoma = tested on: SK-MEL-2 melanoma
SK-OV-3 ovarian = tested on: SK-OV-3 ovarian
PC-3 prostate = tested on: PC-3 prostate
HCT-116 colon = tested on: HCT-116 colon
IGROV1 ovarian = tested on: IGROV1 ovarian
ACHN renal = tested on: ACHN renal
LOX IMVI melanoma = tested on: LOX IMVI melanoma
HCC-2998 colon = tested on: HCC-2998 colon
MDA-N = tested on: MDA-N
CCRF-CEM leukemia = tested on: CCRF-CEM leukemia
OVCAR-4 ovarian = tested on: OVCAR-4 ovarian
SNB-19 CNS = tested on: SNB-19 CNS
MALME-3M melanoma = tested on: MALME-3M melanoma
CAKI-1 renal = tested on: CAKI-1 renal
A498 renal = tested on: A498 renal
EKVX NSCLC = tested on: EKVX NSCLC
UACC-257 melanoma = tested on: UACC-257 melanoma
SNB-75 CNS = tested on: SNB-75 CNS
NCI-H23 lung = tested on: NCI-H23 lung
KM12 colon = tested on: KM12 colon
SF-295 CNS = tested on: SF-295 CNS
SF-539 CNS = tested on: SF-539 CNS
OVCAR-3 ovarian = tested on: OVCAR-3 ovarian
MDA-MB-231 breast = tested on: MDA-MB-231 breast
MCF7 breast = tested on: MCF7 breast
RPMI-8226 leukemia = tested on: RPMI-8226 leukemia
HOP-62 NSCLC = tested on: HOP-62 NSCLC
RXF 393 renal = tested on: RXF 393 renal

Measured: TGI

C/C=C1/C[C@@H](C)[C@@](C)(O)C(=O)OCC2=CC[N+]3([O-])CC[C@@H](OC1=O)[C@@H]23 (stereo partly specified)
> 100 µM: NCI-H522 lung | T-47D breast | DU-145 prostate | 786-0 renal | SF-268 CNS | MOLT-4 leukemia | OVCAR-5 ovarian | COLO 205 colon | A549 NSCLC | BT-549 breast | SN12C renal | SK-MEL-5 melanoma | SW-620 colon | NCI-H460 lung | K-562 leukemia | TK-10 renal | NCI/ADR-RES ovarian | HT29 colon | MDA-MB-435 | M14 melanoma | HL-60(TB) leukemia | U251 CNS | NCI-H226 lung | UO-31 renal | OVCAR-8 ovarian | UACC-62 melanoma | SK-MEL-28 melanoma | HCT-15 colon | HS 578T breast | HOP-92 NSCLC | SK-MEL-2 melanoma | SK-OV-3 ovarian | PC-3 prostate | HCT-116 colon | IGROV1 ovarian | ACHN renal | LOX IMVI melanoma | HCC-2998 colon | MDA-N | CCRF-CEM leukemia | OVCAR-4 ovarian | SNB-19 CNS | MALME-3M melanoma | CAKI-1 renal | A498 renal | EKVX NSCLC | UACC-257 melanoma | SNB-75 CNS | NCI-H23 lung | KM12 colon | SF-295 CNS | SF-539 CNS | OVCAR-3 ovarian | MDA-MB-231 breast | MCF7 breast

O=c1ccn(C2OC(CN(O)CCC3C(O)C(CO)OC3n3ccc(=O)[nH]c3=O)C(O)C2O)c(=O)[nH]1 (stereo unspecified)
> 100 µM: T-47D breast | DU-145 prostate | 786-0 renal | SF-268 CNS | OVCAR-5 ovarian | COLO 205 colon | A549 NSCLC | BT-549 breast | RPMI-8226 leukemia | SN12C renal | NCI-H460 lung | K-562 leukemia | TK-10 renal | NCI/ADR-RES ovarian | HT29 colon | MDA-MB-435 | M14 melanoma | U251 CNS | NCI-H226 lung | UO-31 renal | OVCAR-8 ovarian | HCT-15 colon | HS 578T breast | HOP-92 NSCLC | SK-MEL-2 melanoma | SK-OV-3 ovarian | PC-3 prostate | HCT-116 colon | IGROV1 ovarian | ACHN renal | LOX IMVI melanoma | HCC-2998 colon | MDA-N | OVCAR-4 ovarian | SNB-19 CNS | MALME-3M melanoma | CAKI-1 renal | A498 renal | EKVX NSCLC | SNB-75 CNS | NCI-H23 lung | KM12 colon | SF-295 CNS | OVCAR-3 ovarian | MDA-MB-231 breast | HOP-62 NSCLC | MCF7 breast

CCOP(=O)(OCC)OC1c2[nH]ccc2-c2cc(C(=O)OC)[nH]c2C1OC (stereo unspecified)
> 100 µM: NCI-H522 lung | T-47D breast | DU-145 prostate | 786-0 renal | SF-268 CNS | MOLT-4 leukemia | OVCAR-5 ovarian | COLO 205 colon | A549 NSCLC | BT-549 breast | SN12C renal | SK-MEL-5 melanoma | SW-620 colon | NCI-H460 lung | K-562 leukemia | TK-10 renal | NCI/ADR-RES ovarian | HT29 colon | MDA-MB-435 | M14 melanoma | HL-60(TB) leukemia | U251 CNS | UO-31 renal | OVCAR-8 ovarian | UACC-62 melanoma | SK-MEL-28 melanoma | HCT-15 colon | HS 578T breast | RXF 393 renal | SK-MEL-2 melanoma | SK-OV-3 ovarian | PC-3 prostate | HCT-116 colon | IGROV1 ovarian | ACHN renal | LOX IMVI melanoma | HCC-2998 colon | MDA-N | CCRF-CEM leukemia | OVCAR-4 ovarian | SNB-19 CNS | MALME-3M melanoma | CAKI-1 renal | EKVX NSCLC | UACC-257 melanoma | SNB-75 CNS | NCI-H23 lung | KM12 colon | SF-295 CNS | SF-539 CNS | OVCAR-3 ovarian | MDA-MB-231 breast | HOP-62 NSCLC | MCF7 breast
